Where two headings read alike, the source gives them in different places.
Key:
σ2-receptor = molecular target: T1, σ2-receptor (Rattus norvegicus, UniProt Q5U3Y7); assay: Sigma 2 receptor binding (Version B), [3H]-Ditolylguanidin displacement; conditions: for Ki: [3H]-Ditolylguanidin 3 nM, σ1 sites masked with (+)-Pentazocin 500 nM; for inhibition at 1 µM: read-out: Binding σ2 *[Inhibition at 1 μM]
T1 construct: the σ2-Receptorpreparation was prepared from rat liver; from tissue; host or cells: rat liver membrane homogenate
T1 sequence (Q5U3Y7 1-176): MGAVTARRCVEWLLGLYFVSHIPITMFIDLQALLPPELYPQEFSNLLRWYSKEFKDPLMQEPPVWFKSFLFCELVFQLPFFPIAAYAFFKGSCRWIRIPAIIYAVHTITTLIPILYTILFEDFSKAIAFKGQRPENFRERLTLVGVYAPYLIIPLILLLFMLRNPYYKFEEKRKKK
Procedure: In brief the σ2-Receptorpreparation was prepared from rat liver. The livers were homogenized in 5 to 6 times of volume sucrose solution (0.32M) and homogenized. The homogenate was centrifuged at 2900 rpm, 4° C., 10 min). the supernatant was centrifuged again (31000×g, 4° C., 20 min). The pellet was resuspended in TRIS-buffer, incubated for 30 min at room temperature while stirring and centrifuged f (31000×g, 4° C., 20 min). The pellet was resuspended in cold TRIS-buffer pH 8 and homogenized. Then the protein content was measured (approx. 2 mg/mL) and the homogenate frozen at −80° C. for later use.
The radioligand used was [^3H]-Ditolylguanidin in TRIS-buffer pH 8. The σ1-receptor binding sites were masked through (+)-Pentazocin-solution in TRIS-Puffer pH 8.
In a volume of 200 μL 50 μL compound solution of varying concentration, 50 μL (+)-Pentazocin-solution ([…]; resulting in 500 nM in the assay), 50 μL radioligand-solution (12 nM; resulting in 3 nM in the assay) and finally 50 μL of receptor preparation (approx. 2 mg/mL) were given into a well of a microplate equipped with a filter. The plate was closed and stirred for 2 h at room temperature and 500 rpm. Following that the solvents were removed by a harvester through the filter. After rinsing with H2O the filter was measured in a scintillation counter ([^3H]-protocol).

σ1-receptor [1] = molecular target: T2, σ1-receptor (Cavia porcellus, UniProt Q60492); assay: Sigma 1 receptor binding (Version B), [3H]-(+)-Pentazocin displacement; design: species or system guinea pig
T2 construct: the σ1-receptor preparation was prepared from guinea pig brain; from tissue; host or cells: guinea pig brain membrane homogenate
T2 sequence (Q60492 whole entry): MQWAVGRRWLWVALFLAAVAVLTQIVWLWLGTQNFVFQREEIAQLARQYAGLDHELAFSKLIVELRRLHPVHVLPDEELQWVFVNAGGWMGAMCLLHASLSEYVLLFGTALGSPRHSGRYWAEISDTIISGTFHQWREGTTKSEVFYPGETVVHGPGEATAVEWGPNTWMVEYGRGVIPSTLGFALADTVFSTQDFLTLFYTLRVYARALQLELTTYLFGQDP
Procedure: In brief the σ1-receptor preparation was prepared from guinea pig brain. The brains were homogenized in 5 to 6 times of volume sucrose solution (0.32M) and homogenized. The homogenate was centrifuged at 2900 rpm, 4° C., 10 min). the supernatant was centrifuged again (23500×g, 4° C., 20 min). The pellet was resuspended in Tris-buffer, incubated for 30 min at room temperature and centrifuged f (23500×g, 4° C., 20 min). The pellet was resuspended in cold TRIS-buffer and homogenized. Then the protein content was measured (approx. 1.5 mg/mL) and the homogenate frozen at −80° C. for later use.
The radioligand used was [^3H]-(+)-Pentazocin in TRIS-buffer. In a volume of 200 μL 50 μL TRIS-buffer, 50 μL compound solution of varying concentration, 50 μL radioligand-solution (8 nM; resulting in 2 nM in the assay) and finally 50 μL of receptor preparation (approx. 1.5 mg/mL) were given into a well of a microplate equipped with a filter. The plate was closed and stirred for 2.5 h at 37° C. and 500 rpm. Following that the solvents were removed by a harvester through the filter. After rinsing with H2O the filter was measured in a scintillation counter ([^3H]-protocol).

σ1-receptor [2] = molecular target: T2, σ1-receptor; assay: Sigma-1 receptor binding (Version A), [3H]-(+)-pentazocine displacement; design: species or system guinea pig
[3] = version B, rat liver preparation, read-out: Binding σ2 Ki
[4] = version A, guinea pig brain membranes, [3H]-(+)-pentazocine 3.0 nM, read-out: Binding σ1, Ki
[5] = version B, guinea pig brain preparation, [3H]-(+)-Pentazocin 2 nM, read-out: Binding σ1 Ki
[6] = version B, rat liver preparation, compound at 1 μM
[7] = Binding σ2 Ki [nM], version B, rat liver preparation

CCCCCCCCN1CCC2(CC1)OC(OC)Cc1sccc12 (stereo not drawn) [Example 10, 6′-Methoxy-1-octyl-6′,7′-dihydrospiro[piperidin-4,4-thieno[3.2-c]pyran]]
Ki (σ2-receptor; [3]): 1200 nM
Ki (σ1-receptor [1]): 4.5 ± 2 nM

COC1Cc2sccc2C2(CCN(CC3CCCCC3)CC2)O1 (stereo not drawn) [Example 5, 1-(Cyclohexylmethyl)-6′Methoxy-6′,7′-dihydrospiro[piperidin-4,4′-thieno[3.2-c]pyran]]
Ki (σ1-receptor [2]; [4]): 2.2 ± 0.3 nM
Ki (σ1-receptor [1]; [5]): 0.29 ± 0.079 nM

COC1Cc2sccc2C2(CCN(CCc3ccccc3)CC2)O1 (stereo not drawn) [Example 4, 6′-Methoxy-1-(2-phenylethyl)-6′,7′-dihydrospiro[piperidin-4,4′-thieno[3.2-c]pyran]]
melting point: 94 °C
Ki (σ2-receptor; [3]): 191 nM
Ki (σ1-receptor [1]): 5.89 ± 5.1 nM

COC1Cc2sccc2C2(CCNCC2)O1 (stereo not drawn) [Example 2, 6′-Methoxy-6′,7′-dihydrospiro[piperidin-4,4′-thieno[3,2-c]pyran]
inhibition at 1 µM (σ2-receptor; [6]): 17%
Ki (σ1-receptor [1]; [5]): 602 nM

N#CCC1Cc2sccc2C2(CCN(Cc3ccccc3)CC2)O1 (stereo not drawn) [Example 18, {1-Benzyl-6′,7′-dihyrospiro[piperidin-4,4′-thieno[3,2-c]pyran]-6′-yl}acetonitril]
inhibition at 1 µM (σ2-receptor; [6]): 6%

COC(=O)c1cc2c(s1)CC(OC)OC21CCN(Cc2ccccc2)CC1 (stereo not drawn) [Example 45, Methyl-1-benzyl-6′-methoxy-6′,7′-dihydrospiro[piperidine-4,4′-thieno[3,2-c]pyrano]-2-carboxylate]
inhibition at 1 µM (σ2-receptor; [6]): 45%

c1cc2c(s1)CCOC21CCN(CC2CCCCC2)CC1 [Example 26, 1-(Cyclohexylmethyl)-6′,7′-dihydrospiro[piperidine-4,4′-thieno[3,2-c]pyrano]]
melting point: 77 °C
Ki (σ2-receptor; [7]): 3.27 ± 0.53 nM
Ki (σ1-receptor [1]; [5]): 0.66 ± 0.27 nM

COC1Cc2sccc2C2(CCN(CCC(C)C)CC2)O1 (stereo not drawn) [Example 6, 6′-Methoxy-1-(3-methylbutyl)-6′,7′-dihydrospiro[piperidin-4,4′-thieno[3.2-c]pyran]]
Ki (σ1-receptor [2]): 1.3 ± 0.5 nM
Ki (σ2-receptor; [3]): 285 nM
Ki (σ1-receptor [1]): 0.96 ± 0.53 nM

COC1Cc2sccc2C2(CCN(CC=C(C)C)CC2)O1 (stereo not drawn) [Example 7, 6′-Methoxy-1-(3-methylbut-2-enyl)-6′,7′-dihydrospiro[piperidin-4.4-thieno[3.2-c]pyran]]
Ki (σ2-receptor; [7]): 78.1 ± 74 nM
Ki (σ1-receptor [1]): 0.96 ± 0.25 nM

c1ccc(CN2CCC3(CC2)OCCc2sccc23)cc1 [Example 19, 1-Benzyl-6′,7′-dihydrospiro[piperidin-4,4′-thieno[3,2-c]pyran]]
Ki (σ1-receptor [2]; [4]): 2.1 ± 0.4 nM
Ki (σ2-receptor; [7]): 9.6 ± 8.7 nM
Ki (σ1-receptor [1]): 0.31 ± 0.11 nM

COc1ccc(CN2CCC3(CC2)OC(OC)Cc2sccc23)cc1 (stereo not drawn) [Example 14, 6′-Methoxy-1-(4-methoxybenzyl)-6′,7′-dihydrospiro[piperidin-4,4′-thieno[3.2-c]pyran]]
Ki (σ2-receptor; [3]): 2970 nM
Ki (σ1-receptor [1]): 2.24 ± 0.99 nM

CC(=O)CC1Cc2sccc2C2(CCN(Cc3ccccc3)CC2)O1 (stereo not drawn) [Example 23, 1-(1-Benzyl-6′,7′-dihydrospiro[piperidine-4,4′-thieno[3.2-c]pyrano]-6′-yl)acetone]
Ki (σ2-receptor; [3]): 1610 nM

COC1Cc2sccc2C2(CCN(CCCc3ccccc3)CC2)O1 (stereo not drawn) [Example 11]
Ki (σ2-receptor; [3]): 203 nM

COC1Cc2sc(C(OC)OC)cc2C2(CCN(Cc3ccccc3)CC2)O1 (stereo not drawn) [Example 37]
melting point: 71 °C

COC1Cc2sc(C=NO)cc2C2(CCN(Cc3ccccc3)CC2)O1 (mixture of isomers) [Example 43, (E/Z)-1-Benzyl-6′-methoxy-6′,7′-dihydrospiro[piperidine-4,4′-thieno[3,2-c]pyrano]-2-carbaldehydroxim]
inhibition at 1 µM (σ2-receptor; [6]): 2%

c1ccc(CN2CCC3(CC2)OCCc2sccc23)cc1 [Example 26a]
Ki (σ1-receptor [1]; read-out: Binding σ1 Ki, version B, guinea pig brain preparation, [3H]-(+)-Pentazocin 2 nM): 0.31 ± 0.11 nM

COC1Cc2sc(CN(C)C)cc2C2(CCN(Cc3ccccc3)CC2)O1 (stereo not drawn) [Example 42, (1-Benzyl-6′-methoxy-6′,7′-dihydrospiro[piperidine-4,4′-thieno[3.2-c]pyrano]-2′-yl)-N,N-dimethylmethanamine]
Ki (σ2-receptor; [3]): 898 nM
Ki (σ1-receptor [1]): 16.8 ± 1.1 nM

CCCCCN1CCC2(CC1)OC(OC)Cc1sccc12 (stereo not drawn) [Example 9, 6′-Methoxy-1-pentyl-6′,7′-dihydrospiro[piperidin-4,4′-thieno[3.2-c]pyran]]
Ki (σ1-receptor [2]): 2.9 ± 0.5 nM
Ki (σ2-receptor; [3]): 460 nM
Ki (σ1-receptor [1]): 1.64 ± 0.53 nM

COC1Cc2sccc2C2(CCN(Cc3ccc(F)cc3)CC2)O1 (stereo not drawn) [Example 13, 1-(4-Flourbenzyl)-6′-Methoxy-6′,7′-dihydrospiro[piperidin-4,4′-thieno[3.2-c]pyran]]
Ki (σ1-receptor [2]): 2.3 ± 0.4 nM
Ki (σ2-receptor; [3]): 425 nM
Ki (σ1-receptor [1]): 3.39 ± 4.54 nM

COC1Cc2sccc2C2(CCN(Cc3cccs3)CC2)O1 (stereo not drawn) [Example 15, 6′-Methoxy-1-(thien-2-ylmethyl)-6′,7′-dihydrospiro[piperidin-4,4′-thieno[3.2-c]pyran]]
Ki (σ2-receptor; [3]): 1040 nM
Ki (σ1-receptor [1]; [5]): 2.02 ± 0.61 nM

COC1Cc2sc(C(=O)c3ccccc3)cc2C2(CCN(Cc3ccccc3)CC2)O1 (stereo not drawn) [Example 47, 1-(1-Benzyl-6′-methoxy-6′,7′-dihydrospiro[piperidine-4,4′-thieno[3.2-c]pyrano]-2-yl)-1-phenylmethanone]
Ki (σ2-receptor; [3]): 427 ± 163 nM

NC(=O)C1Cc2sccc2C2(CCN(Cc3ccccc3)CC2)O1 (stereo not drawn) [Example 29, 1-Benzyl-6′,7′-dihyrospiro[piperidine-4,4′-thieno[3,2-c]pyrano]-6′-carboxamide]
inhibition at 1 µM (σ2-receptor; [6]): 63%

COC1Cc2sccc2C2(CCN(Cc3ccccc3)CC2)O1 (stereo not drawn) [Example 3, 1-Benzyl-6′-methoxy-6′,7′-dihydrospiro[piperidin-4,4′-thieno[3.2-c]pyran]]
melting point: 78 °C
Ki (σ1-receptor [2]): 2.4 ± 0.3 nM
Ki (σ2-receptor; [3]): 1260 nM
Ki (σ1-receptor [1]; [5]): 0.32 ± 0.16 nM

COC1Cc2sc(C#N)cc2C2(CCN(Cc3ccccc3)CC2)O1 (stereo not drawn) [Example 44, 1-Benzyl-6′-methoxy-6′,7′-dihydrospiro[piperidine-4,4′-thieno[3,2-c]pyrano]-2-carbonitrile]
inhibition at 1 µM (σ2-receptor; [6]): 16%

N#CCC1Cc2sccc2C2(CCN(Cc3ccccc3)CC2)O1 (stereo not drawn) [Example 23a]
Binding σ2 *[Inhibition at 1 μM] (σ2-receptor; version B, rat liver preparation, compound at 1 μM, 1 µM): 6%

OCCC1Cc2sccc2C2(CCN(Cc3ccccc3)CC2)O1 (stereo not drawn) [Example 27, 2-(1-Benzyl-6′,7′-dihyrospiro[piperidine-4,4′-thieno[3,2-c]pyrano]-6′-yl)ethanol]
inhibition at 1 µM (σ2-receptor; [6]): 11%

COC1Cc2sccc2C2(CCN(CCCCc3ccccc3)CC2)O1 (stereo not drawn) [Example 12, 3′-Methoxy-1-(4-phenylbutyl)-6′,7′-dihydrospiro[piperidin-4,4% thieno[3.2-c]pyran]]
Ki (σ2-receptor; [7]): 99.2 ± 21.9 nM
Ki (σ1-receptor [1]; [5]): 7.67 ± 2.15 nM

CCCCN1CCC2(CC1)OC(OC)Cc1sccc12 (stereo not drawn) [Example 8, 1-Butyl-6′-methoxy-6′,7′-dihydrospiro[piperidin-4,4′-thieno[3.2-c]pyran]]
Ki (σ1-receptor [2]): 5.5 ± 1.2 nM
Ki (σ2-receptor; [3]): 497 ± 294 nM
Ki (σ1-receptor [1]; [5]): 4.3 ± 0.44 nM

CCOC(=O)C1Cc2sccc2C2(CCN(Cc3ccccc3)CC2)O1 (stereo not drawn) [Example 33, Ethyl-1-benzyl-6′,7′-dihvrospiro[piperidine-4,4′-thieno[3,2-c]pyrano]-6′-carboxylate]
inhibition at 1 µM (σ2-receptor; [6]): 0%

COC1Cc2sc(Cl)cc2C2(CCN(Cc3ccccc3)CC2)O1 (stereo not drawn) [Example 38, 1-Benzyl-2′-chloro-6′-methoxy-6′,7′-dihydrospiro[piperidine-4,4′-thieno[3.2-c]-pyrano]]
melting point: 117 °C
inhibition at 1 µM (σ2-receptor; [6]): 49%

O=C1Cc2sccc2C2(CCN(Cc3ccccc3)CC2)O1 [Example 28, 1-Benzylspiro[piperidine-4,4′-thieno[3.2-c]pyrano]-6′(7′H)-one]
inhibition at 1 µM (σ2-receptor): 0%

Source: patent US20100190813A1, “SPIRO [PIPERIDINE-4- 4' -THIENO [3,2-C] PYRAN] DERIVATIVES AND RELATED COMPOUNDS AS INHIBITORS OF THE SIGMA RECEPTOR FOR THE TREATMENT OF PSYCHOSIS” (priority 2007, published 2010)
